Results on one compound are retold here after patent publication US20210112813A1, “HERBICIDAL COMPOSITION AND USE THEREOF” (NANTONG JIANGSHAN AGROCHEMICAL & CHEMICALS CO., LTD., priority 2019, published 2021).

Common to all, as to type: in vivo
The subject of test [1] is Bristlegrass. The test is described as follows: Greenhouse pot test, pre-emergence soil treatment, visual control effect 30 days after treatment, Gowing method. How it is done:
In the present application, indoor combined action of the compound of herbicide active component A and B on weeds was measured to determine the combined effect of the composition on weeds, wherein the structure of the active component A was as follows:
The weed cultivation method was as follows: quantitative weed seeds abutilon and bristlegrass were respectively sown in a paper cup filled with nutrient soil with a diameter of 7 cm, and then cultivated in the greenhouse after covering the soil, suppressing and watering. The post-emergence stem and leaf treatment was performed when the grass weeds grew to 5-7 leaf stage, broad-leaved weeds grew to 6-8 leaf stage; the pre-emergence soil treatment was performed the second day after sowing, and the early post-emergence treatment was performed after sowing and before emergence; the experiment was repeated 3 times. After the treatment and drug solution naturally dried, the weeds were placed in the greenhouse to be managed according to conventional methods. According to the suppression or death of the weeds, a visual control effect investigation was conducted 30 days after the treatment. The application adopted the Gowing method to evaluate the combined effect of the proposed composition.
X—Weed control effect when the amount of herbicide component A is P;
Y—Weed control effect when the amount of herbicide component B is Q;
E0—Theoretical control effect when the amount of herbicide component A is […];
E—The measured control effect after the herbicide component A and the herbicide component B are mixed according to the above ratio.
When E−E0>10%, it is synergism; when E−E0<−10%, it is antagonism; when E−E0 value is between ±10%, it is addition.

The subject of test [2] is Lambsquarters. The test is described as above.
The test system of test [3] is Amaranthusretroflexus. Description: Field plot test, non-cultivated weeds, pre-emergence soil treatment. The following applies: Table 8, dose 600 ga.i./hm^2. How it is done: (§1) The present application also conducted a medicinal efficacy test on weeds on the formulation examples containing herbicide active component A and active component B by the field plot test method, and clarified the control effect of the composition on non-cultivated weeds.
(§2) According to the different components of different formulation examples, pre-emergence soil treatment, early post-emergence and post-emergence stem and leaf spray treatment were carried out respectively. The spraying device was Singapore Linong HD400 hand-operating knapsack sprayer (No. H17001), working pressure: […], spray rate: 640 mL/min, adjustable cone spraying nozzle (325787), spraying nozzle height: 0.5 m, spray width: 0.85 m, walking speed: about 16.7 m/min, and spray volume: […];

Test [4] has as its system Bristlegrass. The description is as above. The following applies: Table 8, dose 600 ga.i./hm^2. How it is done:
as §1, §2

The test system of test [5] is Crabgrass. Described as above. The following applies: Table 8, dose 600 ga.i./hm^2. As to the method:
as §1, §2

Test [6] deals with Lambsquarters. Described as above. The following applies: Table 8, dose 600 ga.i./hm^2. As to the method:
as §1, §2

For the compound `CCc1cccc(C)c1N(C(=O)CCl)[C@@H](C)COC` [S-metolachlor], the “Measured value E” value in test [1] (Table 2, dose 90 ga.i./hm^2) came to 35%; in test [1] (Table 2, dose 135 ga.i./hm^2), 60%; in test [2] (Table 2, dose 90 ga.i./hm^2) it was 45%; in test [2] (Table 2, dose 135 ga.i./hm^2), 65%. Besides, in test [3], the “Control effect, Amaranthusretroflexus” value amounted to 75. For the same compound, the “Control effect, Bristlegrass” value in test [4] was found to be 60. In test [5], the “Control effect, Crabgrass” value is given as 70. Moreover, the “Control effect, Lambsquarters” value in test [6] came out at 50.
